Results as given in ChEMBL document CHEMBL1201862, “PubChem BioAssay data set” (2004).
Several values for one entry are separate records, joined by “and”; a condition that tells them apart may be missing. Equal values may be shown once.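 Compound exposure: 48 hours, 5 concentrations, 96-well plates. GI50 = concentration required for 50% inhibition of growth.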 Activity calls are given as the source filed them. No stated cut-off is given here; in the data, active = GI50 up to about 1.1 µM and inactive = higher.

Legend:
Assay in all cases: growth of human tumour cells (NCI), 48 h
[1] = system: IGROV-1
[2] = system: MCF7
[3] = system: HL-60
[4] = system: HCT-116
[5] = system: MDA-MB-231
[6] = system: SK-MEL-2
[7] = system: MDA-MB-435
[8] = system: MOLT-4
[9] = system: U-251
[10] = system: SK-MEL-28
[11] = system: HCT-15
[12] = system: K562
[13] = system: TK-10
[14] = system: LOX IMVI
[15] = system: OVCAR-3
[16] = system: ACHN
[17] = system: EKVX
[18] = system: HOP-92
[19] = system: SNB-75

SMILES	GI50 [1]	GI50 [2]	GI50 [3]	GI50 [4]	GI50 [5]	GI50 [6]	GI50 [7]	GI50 [8]	GI50 [9]	GI50 [10]	GI50 [11]	GI50 [12]	GI50 [13]	GI50 [14]	GI50 [15]	GI50 [16]	GI50 [17]	GI50 [18]	GI50 [19]
Cc1ccc(Nc2n[nH]c(NS(=O)(=O)c3cc(C)c(Cl)cc3S)n2)cc1	> 100 µM (inactive)	> 100 µM (inactive)	> 100 µM (inactive)	> 100 µM (inactive)	> 100 µM (inactive)	> 100 µM (inactive)	> 100 µM (inactive)	> 100 µM (inactive)	> 100 µM (inactive)	> 100 µM (inactive)	> 100 µM	> 100 µM (inactive)	> 100 µM (inactive)	> 100 µM (inactive)	> 100 µM (inactive)	> 100 µM (inactive)	> 100 µM (inactive)	> 100 µM (inactive)	> 100 µM (inactive)
CC(C)N1CCN(c2ccncc2S(=O)(=O)N2CCCCC2)CC1	> 100 µM (inactive)	> 100 µM (inactive)	> 100 µM (inactive)	> 100 µM (inactive)	> 100 µM (inactive)	> 100 µM (inactive)	> 100 µM (inactive)		> 100 µM (inactive)	> 100 µM (inactive)	> 100 µM	> 100 µM (inactive)	> 100 µM (inactive)	> 100 µM (inactive)	> 100 µM (inactive)	> 100 µM (inactive)	> 100 µM (inactive)	> 100 µM (inactive)	> 100 µM (inactive)
Cc1cccc(/C=N/NC(=S)N(C)CCc2ccccn2)n1	0.366 µM (active)	0.42 µM (active)	0.0429 µM (active)	0.256 µM (active)	1.16 µM (inactive)	0.661 µM (active)	0.521 µM (active)	0.0647 µM (active)	0.347 µM (active)	0.501 µM (active)	0.196 µM	0.163 µM (active)	15.2 µM (inactive)	0.207 µM (active)	0.0853 µM (active)	0.191 µM (active)	0.391 µM (active)	0.38 µM (active)	0.483 µM (active)
COc1c(C(=O)CC2c3c(cc4oc(C)cc(=O)c4c3OC)OC(=N)C2c2nc3ccccc3[nH]2)c(O)c(OC)c2occc12 (centres undefined)	> 100 µM (inactive)	> 100 µM (inactive)	> 100 µM (inactive)	> 100 µM (inactive)	> 100 µM (inactive)	> 100 µM (inactive)	> 100 µM (inactive)	> 100 µM (inactive)	> 100 µM (inactive)	> 100 µM (inactive)	> 100 µM	> 100 µM (inactive)	> 100 µM (inactive)	> 100 µM (inactive)	> 100 µM (inactive)	> 100 µM (inactive)	> 100 µM (inactive)	> 100 µM (inactive)	> 100 µM (inactive)
O=c1[nH]cc(/C=N\Nc2ccccc2)c(=O)[nH]1	> 100 µM (inactive)	> 100 µM (inactive)	5.78 µM (inactive)	> 100 µM (inactive)	> 100 µM (inactive)	> 100 µM (inactive)	> 100 µM (inactive)		> 100 µM (inactive)	> 100 µM (inactive)	36.3 µM	3.96 µM (inactive)	> 100 µM (inactive)	6.14 µM (inactive)	21.8 µM (inactive)	68.9 µM (inactive)	> 100 µM (inactive)	> 100 µM (inactive)	> 100 µM (inactive)
COc1ccc2[nH]c3c(C)c4ccnc(NCCCN(C)CCCNc5ccc6ncn7c8ccccc8c(=O)c5c67)c4c(C)c3c2c1	0.158 µM (active)	0.142 µM (active)	0.08 µM (active)	0.0767 µM (active)	0.322 µM (active)	3.24 µM (inactive)	0.713 µM (active)	0.0043 µM (active)	0.134 µM (active)	0.671 µM (active)	0.21 µM	0.0632 µM (active)	0.22 µM (active)	0.136 µM (active)	1.87 µM (inactive)	0.0598 µM (active)	0.94 µM (active)	1.68 µM (inactive)	1.71 µM (inactive)
CC(=O)NCCCCN(CCCNC(C)=O)C(=O)OCc1ccccc1	> 100 µM (inactive)	> 100 µM (inactive)	> 100 µM (inactive)	> 100 µM (inactive)	> 100 µM (inactive)	> 100 µM (inactive)	> 100 µM (inactive)	> 100 µM (inactive)	> 100 µM (inactive)	> 100 µM (inactive)	> 100 µM	> 100 µM (inactive)	> 100 µM (inactive)	> 100 µM (inactive)	> 100 µM (inactive)	> 100 µM (inactive)	> 100 µM (inactive)	> 100 µM (inactive)	19.1 µM (inactive)
C=C1C(=O)OC2CC1C(OC(C)=O)C/C(C)=C/CC/C(C)=C\CCC2(C)O (centres undefined)		3.8 µM (inactive) and 3.74 µM (inactive)	1.23 µM (inactive) and 655 nM (active)	2.08 µM (inactive) and 2.91 µM (inactive)	7.13 µM (inactive) and 8.95 µM (inactive)		4.19 µM (inactive) and 4.68 µM (inactive)	2.22 µM (inactive) and 1.88 µM (inactive)	10.7 µM (inactive) and 10.3 µM (inactive)	3.19 µM (inactive) and 2.95 µM (inactive)	1.56 µM and 3.04 µM	1.39 µM (inactive) and 2.54 µM (inactive)	4.37 µM (inactive) and 3.66 µM (inactive)	2.46 µM (inactive) and 2.14 µM (inactive)	5.93 µM (inactive) and 4.35 µM (inactive)	4.23 µM (inactive) and 2.37 µM (inactive)	3.81 µM (inactive) and 3.73 µM (inactive)	3.65 µM (inactive) and 2.89 µM (inactive)	11.2 µM (inactive) and 10.8 µM (inactive)
Cn1c(S)nc2c(Cl)cc(Cl)cc2c1=O	80.5 µM (inactive)	71.4 µM (inactive)	18.2 µM (inactive)	> 100 µM (inactive)	> 100 µM (inactive)	> 100 µM (inactive)	> 100 µM (inactive)	18.7 µM (inactive)	> 100 µM (inactive)	> 100 µM (inactive)	> 100 µM		> 100 µM (inactive)	> 100 µM (inactive)	> 100 µM (inactive)	> 100 µM (inactive)	> 100 µM (inactive)	63.5 µM (inactive)	55.3 µM (inactive)
OCCOCCN1CCN(c2nc(N3CCCC3)c3nc(Cl)c(NCc4ccccc4)nc3n2)CC1	18.3 µM (inactive)	13.9 µM (inactive)	12.1 µM (inactive)	12.8 µM (inactive)	16.9 µM (inactive)	17.5 µM (inactive)	11.7 µM (inactive)	10.7 µM (inactive)	12 µM (inactive)	14.4 µM (inactive)	4.27 µM	3.94 µM (inactive)	12.4 µM (inactive)	10.5 µM (inactive)	13.8 µM (inactive)	14 µM (inactive)	13.6 µM (inactive)	12.9 µM (inactive)	21 µM (inactive)
Cc1ccc([N+](=O)[O-])cc1S(=O)(=O)Nc1ccc(C(=O)/C=C/c2ccccc2)cc1	18.7 µM (inactive)	10.1 µM (inactive)	25.3 µM (inactive)	15.7 µM (inactive)	16.9 µM (inactive)	19.1 µM (inactive)	19.6 µM (inactive)	4.51 µM (inactive)		23.4 µM (inactive)	19.5 µM	4.79 µM (inactive)	31.3 µM (inactive)	19 µM (inactive)	15.7 µM (inactive)	13.2 µM (inactive)	18 µM (inactive)	15.9 µM (inactive)	17.3 µM (inactive)
N#Cc1c(N)nc2c(C#N)c(N)cc3c2c1Oc1ccccc1-3	> 100 µM (inactive)	> 100 µM (inactive)	> 100 µM (inactive)	> 100 µM (inactive)	> 100 µM (inactive)	> 100 µM (inactive)	> 100 µM (inactive)	> 100 µM (inactive)	> 100 µM (inactive)	> 100 µM (inactive)	> 100 µM	> 100 µM (inactive)	> 100 µM (inactive)	> 100 µM (inactive)	> 100 µM (inactive)	> 100 µM (inactive)	> 100 µM (inactive)	> 100 µM (inactive)	> 100 µM (inactive)
CCn1c(-c2ccc(C)cc2)cs/c1=N\C(P(=O)(O)O)P(=O)(O)O	> 100 µM (inactive)	> 100 µM (inactive)	0.337 µM (active)	> 100 µM (inactive)	> 100 µM (inactive)		> 100 µM (inactive)	> 100 µM (inactive)	> 100 µM (inactive)	> 100 µM (inactive)	> 100 µM	> 100 µM (inactive)	> 100 µM (inactive)	> 100 µM (inactive)	> 100 µM (inactive)	> 100 µM (inactive)	> 100 µM (inactive)	> 100 µM (inactive)	> 100 µM (inactive)
Cc1ccc(C(=O)Cn2c(C(=O)/C=C/c3cccs3)nc3ccccc32)cc1	25 µM (inactive)	29.6 µM (inactive)	22.7 µM (inactive)	43.4 µM (inactive)	71.3 µM (inactive)	12.6 µM (inactive)	21.3 µM (inactive)		39.1 µM (inactive)	68.5 µM (inactive)	31.3 µM	25.8 µM (inactive)	53.2 µM (inactive)	26.2 µM (inactive)	31.3 µM (inactive)	61.4 µM (inactive)		93.5 µM (inactive)	> 100 µM (inactive)
CCc1nc(N)nc(N)c1-c1ccc(Cl)c(Cl)c1 [ETOPRINE]	2.96 µM (inactive)	3.05 µM (inactive)	> 100 µM (inactive)	0.574 µM (active)	> 100 µM (inactive)	23.4 µM (inactive)	0.818 µM (active)		2.79 µM (inactive)	> 100 µM (inactive)	3.75 µM		36.1 µM (inactive)	3.51 µM (inactive)	24.9 µM (inactive)	2.86 µM (inactive)	20.9 µM (inactive)	13.3 µM (inactive)	35.1 µM (inactive)
